Assay results from PubChem BioAssay AID2060487 (Molecular Pharmacology Branch, DTP, NCI, 2025).

System: 997537-175-T-J1-PDC complex spheroid viability
Test: Anticancer human tumor 997537-175-T-J1-PDC patient-derived colon adenocarcinoma cell line growth inhibition [GQUAD]
Settings: for IC50: curve of first compound; for viability, T/C: stronger effect = lower value
Method in brief: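 Multi-cell-type spheroids of tumor cells with HUVEC and mesenchymal stem cells, treated with drug combinations. Concentrations descend in half-log steps from near clinical Cmax, or from 10 microM where Cmax is unknown; viability read-out.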

[1] = second compound 0.0316 µM, first compound 0.0316 µM
[2] = second compound 0.0316 µM, first compound 0.1 µM
[3] = second compound 0.0316 µM, first compound 0.316 µM
[4] = second compound 0.0316 µM, first compound 1 µM
[5] = second compound 0.0316 µM, first compound 3.16 µM
[6] = second compound 0.0316 µM, first compound 10 µM
[7] = second compound 0.1 µM, first compound 0.0316 µM
[8] = second compound 0.1 µM, first compound 0.1 µM
[9] = second compound 0.1 µM, first compound 0.316 µM
[10] = second compound 0.1 µM, first compound 1 µM
[11] = second compound 0.1 µM, first compound 3.16 µM
[12] = second compound 0.1 µM, first compound 10 µM
[13] = second compound 0.316 µM, first compound 0.0316 µM
[14] = second compound 0.316 µM, first compound 0.1 µM
[15] = second compound 0.316 µM, first compound 0.316 µM
[16] = second compound 0.316 µM, first compound 1 µM
[17] = second compound 0.316 µM, first compound 3.16 µM
[18] = second compound 0.316 µM, first compound 10 µM
[19] = second compound 1 µM, first compound 0.0316 µM
[20] = second compound 1 µM, first compound 0.1 µM
[21] = second compound 1 µM, first compound 0.316 µM
[22] = second compound 1 µM, first compound 1 µM
[23] = second compound 1 µM, first compound 3.16 µM
[24] = second compound 1 µM, first compound 10 µM
[25] = second compound 3.16 µM, first compound 0.0316 µM
[26] = second compound 3.16 µM, first compound 0.1 µM
[27] = second compound 3.16 µM, first compound 0.316 µM
[28] = second compound 3.16 µM, first compound 1 µM
[29] = second compound 3.16 µM, first compound 3.16 µM
[30] = second compound 3.16 µM, first compound 10 µM
[31] = second compound 10 µM, first compound 0.0316 µM
[32] = second compound 10 µM, first compound 0.1 µM
[33] = second compound 10 µM, first compound 0.316 µM
[34] = second compound 10 µM, first compound 1 µM
[35] = second compound 10 µM, first compound 3.16 µM
[36] = second compound 10 µM, first compound 10 µM
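Further: spheroids exposed to the agents for 7 days.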
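Wherever viability, T/C is given: 100% = DMSO vehicle control viability.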

For `C=CCn1c(=O)c2cnc(Nc3ccc(N4CCN(C)CC4)cc3)nc2n1-c1cccc(C(C)(C)O)n1` + Cc1[nH]c2ccc(F)cc2c1-c1nc2c3cccnc3c3ncccc3c2[nH]1, the IC50 (second compound 0.0316 µM) was 6.61 µM, the IC50 (second compound 0.1 µM) was 6.38 µM and the IC50 (second compound 0.316 µM) was 6.16 µM. It also gave an IC50 (second compound 1 µM) of 5.5 µM, an IC50 (second compound 3.16 µM) of 2.24 µM and an IC50 (second compound 10 µM) of 2.09 µM. The viability, T/C [1] was 102%, the viability, T/C [2] was 68.9% and the viability, T/C [3] was 82.3%. For the same compound, the viability, T/C [4] was 83.6%, the viability, T/C [5] was 90.9% and the viability, T/C [6] was 30%. The viability, T/C [7] was 105%, the viability, T/C [8] was 97.1% and the viability, T/C [9] was 89.8%. The viability, T/C [10] was 89.2%, the viability, T/C [11] was 93.6% and the viability, T/C [12] was 22.2%. It also gave a viability, T/C [13] of 86.8%, a viability, T/C [14] of 98.8% and a viability, T/C [15] of 79.3%. The viability, T/C [16] was 86.4%, the viability, T/C [17] was 84.4% and the viability, T/C [18] was 25%. For the same compound, the viability, T/C [19] was 86.6%, the viability, T/C [20] was 102% and the viability, T/C [21] was 86.4%. It also gave a viability, T/C [22] of 78.3%, a viability, T/C [23] of 71.2% and a viability, T/C [24] of 30.1%. The viability, T/C [25] was 92%, the viability, T/C [26] was 87.3% and the viability, T/C [27] was 72.4%. The viability, T/C [28] was 56.5%, the viability, T/C [29] was 55% and the viability, T/C [30] was 6.52%. It also gave a viability, T/C [31] of 91.9%, a viability, T/C [32] of 65.1% and a viability, T/C [33] of 74.9%. It also gave a viability, T/C [34] of 66.5%, a viability, T/C [35] of 42.1% and a viability, T/C [36] of 11.5%.
Work on `CC(=O)O[C@H]1C(=O)[C@@]2(C)[C@H]([C@H](OC(=O)c3ccccc3)[C@]3(O)C[C@H](OC(=O)[C@H](O)[C@@H](NC(=O)c4ccccc4)c4ccccc4)C(C)=C1C3(C)C)[C@]1(OC(C)=O)CO[C@@H]1C[C@@H]2O` + CN(C)c1ccc(Nc2c3ccc(NC(=O)CCN4CCCC4)cc3nc3cc(NC(=O)CCN4CCCC4)ccc23)cc1 yielded an IC50 (second compound 0.0316 µM) of 0.0791 µM, an IC50 (second compound 0.1 µM) of 0.0677 µM and an IC50 (second compound 0.316 µM) of 0.0746 µM. The IC50 (second compound 1 µM) was 0.0531 µM, the IC50 (second compound 3.16 µM) was < 0.0316 µM and the IC50 (second compound 10 µM) was 0.059 µM. The viability, T/C [1] was 75.2%, the viability, T/C [2] was 43.6% and the viability, T/C [3] was 28.1%. It also gave a viability, T/C [4] of 21.5%, a viability, T/C [5] of 32.2% and a viability, T/C [6] of 29.4%. It also gave a viability, T/C [7] of 67.3%, a viability, T/C [8] of 40.9% and a viability, T/C [9] of 36.9%. For the same compound, the viability, T/C [10] was 21.1%, the viability, T/C [11] was 30.7% and the viability, T/C [12] was 34.9%. It also gave a viability, T/C [13] of 78.3%, a viability, T/C [14] of 36.5% and a viability, T/C [15] of 34.5%. For the same compound, the viability, T/C [16] was 19.4%, the viability, T/C [17] was 16.6% and the viability, T/C [18] was 21.1%. The viability, T/C [19] was 71.6%, the viability, T/C [20] was 9.98% and the viability, T/C [21] was 35.1%. For the same compound, the viability, T/C [22] was 18.1%, the viability, T/C [23] was 29.6% and the viability, T/C [24] was 24.8%. It also gave a viability, T/C [25] of 37.7%, a viability, T/C [26] of 45.5% and a viability, T/C [27] of 31.9%. The viability, T/C [28] was 18.1%, the viability, T/C [29] was 20.1% and the viability, T/C [30] was 41.8%. The viability, T/C [31] was 72%, the viability, T/C [32] was 28.8% and the viability, T/C [33] was 34.4%. It also gave a viability, T/C [34] of 35.7%, a viability, T/C [35] of 29.8% and a viability, T/C [36] of 27.3%.
For `COc1cc(C2c3cc4c(cc3C(OC3OC5COC(C)OC5C(O)C3O)C3COC(=O)C23)OCO4)cc(OC)c1O` (stereo unspecified) + Cc1cnc(CNC(=O)c2c(=O)c3ccc(N4CCCN(C)CC4)nc3n3c2sc2ccccc23)cn1, the IC50 (second compound 0.0316 µM) was > 10 µM, the IC50 (second compound 0.1 µM) was > 10 µM and the IC50 (second compound 0.316 µM) was 5.74 µM. For the same compound, the IC50 (second compound 1 µM) was > 10 µM, the IC50 (second compound 3.16 µM) was > 10 µM and the IC50 (second compound 10 µM) was > 10 µM. It also gave a viability, T/C [1] of 113%, a viability, T/C [2] of 97.7% and a viability, T/C [3] of 101%. For the same compound, the viability, T/C [4] was 60.2%, the viability, T/C [5] was 78.6% and the viability, T/C [6] was 53%. The viability, T/C [7] was 109%, the viability, T/C [8] was 96.5% and the viability, T/C [9] was 84.9%. For the same compound, the viability, T/C [10] was 71.3%, the viability, T/C [11] was 63.2% and the viability, T/C [12] was 76.7%. For the same compound, the viability, T/C [13] was 78%, the viability, T/C [14] was 109% and the viability, T/C [15] was 104%. It also gave a viability, T/C [16] of 89.1%, a viability, T/C [17] of 60% and a viability, T/C [18] of 40.9%. The viability, T/C [19] was 88.1%, the viability, T/C [20] was 84.1% and the viability, T/C [21] was 97.3%. For the same compound, the viability, T/C [22] was 101%, the viability, T/C [23] was 75.3% and the viability, T/C [24] was 63.3%. It also gave a viability, T/C [25] of 62.1%, a viability, T/C [26] of 99.2% and a viability, T/C [27] of 104%. For the same compound, the viability, T/C [28] was 86.2%, the viability, T/C [29] was 76.4% and the viability, T/C [30] was 50.7%. For the same compound, the viability, T/C [31] was 71.4%, the viability, T/C [32] was 84.9% and the viability, T/C [33] was 106%. The viability, T/C [34] was 98.5%, the viability, T/C [35] was 88.6% and the viability, T/C [36] was 69.5%.
